Laboratory results: patent US6093729A, “Substituted bicyclic heteroaroylguanidines, a process for their preparation, their use as a medicament or a diagnostic agent, and a medicament containing them” (priority 1994, dated 2000)
Structures can show the parent of a compound that is named as a salt.

How the values were obtained:
[1] = target: T1, Na^+ /H^+ exchanger of rabbit erythrocytes (Oryctolagus cuniculus, UniProt P23791); assay: Inhibition of the Na^+ /H^+ exchanger of rabbit erythrocytes (amiloride-sensitive sodium influx, flame photometry); type: cell-based, rabbit (New Zealand White); conditions: pH 7.4, 37° C.
T1 construct: determine the Na^+ influx into the erythrocytes; endogenous in cells; host or cells: erythrocytes of cholesterol-fed New Zealand White rabbits (Ivanovas)
T1 sequence (P23791 whole entry): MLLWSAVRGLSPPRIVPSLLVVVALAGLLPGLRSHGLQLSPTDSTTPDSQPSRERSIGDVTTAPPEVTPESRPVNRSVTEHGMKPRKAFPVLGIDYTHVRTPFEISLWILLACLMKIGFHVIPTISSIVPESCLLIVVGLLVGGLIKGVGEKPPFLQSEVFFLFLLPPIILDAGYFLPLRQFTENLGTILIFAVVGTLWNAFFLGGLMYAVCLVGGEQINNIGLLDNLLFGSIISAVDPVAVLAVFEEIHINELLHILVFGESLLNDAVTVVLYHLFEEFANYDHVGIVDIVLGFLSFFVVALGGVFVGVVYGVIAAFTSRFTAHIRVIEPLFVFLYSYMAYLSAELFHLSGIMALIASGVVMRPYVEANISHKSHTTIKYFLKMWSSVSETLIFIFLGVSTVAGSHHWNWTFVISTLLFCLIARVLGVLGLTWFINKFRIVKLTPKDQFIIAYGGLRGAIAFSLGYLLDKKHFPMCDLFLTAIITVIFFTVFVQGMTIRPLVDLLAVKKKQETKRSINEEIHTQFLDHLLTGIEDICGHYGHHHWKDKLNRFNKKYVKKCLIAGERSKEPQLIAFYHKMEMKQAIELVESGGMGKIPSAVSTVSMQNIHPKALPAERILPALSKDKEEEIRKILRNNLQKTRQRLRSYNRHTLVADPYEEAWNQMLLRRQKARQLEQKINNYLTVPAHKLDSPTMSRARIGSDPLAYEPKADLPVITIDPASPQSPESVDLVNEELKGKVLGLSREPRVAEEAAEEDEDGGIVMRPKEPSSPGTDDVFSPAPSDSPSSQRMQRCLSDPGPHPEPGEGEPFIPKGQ
Source text: Inhibition of the Na^+ /H^+ exchanger of rabbit erythrocytes:
New Zealand White rabbits (Ivanovas) were given a standard diet containing 2% cholesterol for six weeks in order to activate Na^+ /H^+ exchange and thus to be able to use flame photometry to determine the Na^+ influx into the erythrocytes via […]. The blood was removed from the aural arteries and rendered incoagulable by the addition of 25 IU of potassium heparin. One part of each sample was used for the duplicate determination of the hematocrit by centrifugation. Aliquots of in each case 100 μl were employed for measuring the initial content of Na^+ in the erythrocytes.
In order to determine the amiloride-sensitive sodium influx, 100 μl of each blood sample were in each case incubated, at pH 7.4 and 37° C., in 5 ml of a hyperosmolar salt/sucrose medium ([…]: 140 NaCl, 3 KCl, 150 sucrose, 0.1 ouabain, 20 tris(hydroxymethyl)aminomethane). The erythrocytes were then washed three times with ice cold MgCl2 /ouabain solution ([…]: 112 MgCl2, 0.1 ouabain) and hemolyzed in 2.0 ml of distilled water. The intracellular content of sodium was determined by flame photometry.
The nett influx of Na^+ was calculated from the difference between the initial sodium values and the sodium content of the erythrocytes following incubation. The amilorideinhibitable sodium influx was given by the difference in the sodium content of the erythrocytes following incubation with and without 3×10-4 mol/l amiloride. The same procedure was also used in the case of the compounds according to the invention.

[2] = test system: rat hearts; conditions: isolated rat hearts, cited from earlier work
[3] = cited from earlier work

## NC(N)=NC(=O)c1ccc2ccccc2n1 [Example 1, Quinoline-2-carboguanidide Dihydrochloride]
[1]
  IC50: 2 to 3 µM

## NC(N)=NC(=O)c1ccc2cnccc2c1 [Example 4, Isoquinoline-6-carboguanidide]
[1]
  IC50: 10 µM

## NC(N)=NC(=O)c1cnc2ccccc2c1 [Example 2, Quinoline-3-carboguanidide Dihydrochloride]
[1]
  IC50: 1.2 µM

## NC(N)=NC(=O)c1ccc2ncccc2c1 [Example 3, Quinolin-6-carboguanidide]
[1]
  IC50: 3 to 5 µM

## NC(N)=NC(=O)c1nc(Cl)c(N)nc1N [amiloride]
[2]; Eur. Heart J. 9 (suppl. 1): 167 (1988)
  suppression of artificially induced ventricular fibrillation: completely suppress artificially induced ventricular fibrillation
[3]; Circulation 79, 1257-63 (1989)
  antiarrhythmic effect: only weakly expressed
[3]; side effects
  accompanying effects undesirable when treating cardiac arrhythmias: hypotensive and saluretic effects

## CCN(c1nc(N)c(C(=O)N=C(N)N)nc1Cl)C(C)C [ethylisopropyl amiloride, Ethylisopropylamiloride]
[2]; compared with amiloride
  potency relative to amiloride against artificially induced ventricular fibrillation: even more potent than amiloride

## Cc1nc2ccc(Cl)cc2cc1C(=O)N=C(N)N [Example 8, 6-Chloro-2-methylquinoline-3-carboguanidide hydrochloride]
[1]
  IC50: < 1 µM
